The results in this text go back to US7384911B2, “Peptides having antimicrobial properties and compositions containing them, notably for the preservation of foodstuffs” (priority 2002, dated 2008).

In one experiment the test system is Neurospora crassa. The class given is cell-based. Particulars: interval [a]-[b], tested spheniscin-2 0.2-100 μM, thanatin 0.4-41.1 μM. On the procedure: (§1) The spores of the fungus N. crassa to be tested were suspended in a suitable culture medium of the “potato infusion—glucose” type. Preference was given to the use of 12 g of potato dextrose broth medium (1/2 PDB, Difco) per 1 liter of demineralized water. Two antibiotics were added to the culture medium: cefotaxime (final concentration at 100 μg/ml) and tetracycline (final concentration at 10 μg/ml).
(§2) Antimicrobial activities were detected by a growth inhibition test in microtitration plates (Hétru and Bulet, 1997). One deposited […] of each fraction collected in mictrotitration plates in the presence of 90 μl of culture medium containing the microorganisms (at a final concentration equivalent to 1 mDO at 600 nm).
(§3) For the filamentous fungi, the incubation was performed at 37° C. in a humid atmosphere for 48 hours.
(§4) The antimicrobial activities expressed in minimal inhibitory concentration (MIC) of spheniscin 2 (concentrations comprised between 0.2 μM and 100 μM) were determined against bacteria, yeasts and fungi using a growth inhibition test in liquid medium in microtitration plates (for the detailed protocol see example 2.4 as well as Hétru and Bulet, 1997). […]

The subject of experiment [1] is Aspergillus fumigatus. The class given is cell-based. The settings on record: interval [a]-[b], tested spheniscin-2 0.2-100 μM, thanatin 0.4-41.1 μM. On the procedure:
as §1, §2, §3, §4

The next experiment has as its system B. cereus ATCC 11778. The class given is cell-based, Bacillus cereus. Particulars: interval [a]-[b], tested spheniscin-2 0.2-100 μM, MSI-94 0.2-10 μM. On the procedure:
(§5) The bacteria to be tested were suspended in a suitable nutritive medium of the “poor broth” type corresponding to a solution of bactotryptone at 10 g/l with the addition of NaCl 5 g/l in ultrapure water.
as §2
(§6) For the bacteria and the yeast, incubation was performed at 30° C. for 12-24 h under agitation. The growth of the microorganisms was measured by monitoring the absorbance at 600 nm by means of a spectrophotometer reader of microtitration plates.
as §4

The next experiment relates to S. saprophyticus. The class given is cell-based, Staphylococcus saprophyticus. The settings on record: interval [a]-[b], tested spheniscin-2 0.2-100 μM, MSI-94 0.2-10 μM. As for the experimental part:
as §5, §2, §6, §4

A further experiment relates to Candida glabrata. The class given is cell-based. Particulars: tested spheniscin-2 0.2-100 μM, MSI-94 0.2-10 μM, ND = activity not detected in range tested. As for the experimental part: (§7) The yeast strain C. albicans to be tested was incubated in a suitable culture medium of the “Sabouraud” type.
as §2, §6
(§8) The antimicrobial activities expressed in minimal inhibitory concentration (MIC) of spheniscin 2 (concentrations comprised between 0.2 μM and 100 μM) were determined against bacteria, yeasts and fungi using a growth inhibition test in liquid medium in microtitration plates (for the detailed protocol see example 2.4 as well as Hétru and Bulet, 1997).
(§9) The minimal growth inhibitory concentration (MIC) corresponds to the interval [a]-[b] in which [a] is the strongest concentration tested for which the microorganism grows and [b] is the weakest concentration tested starting at which there is 100% inhibition of growth of the microorganism (Casteels and Tempst, 1994). […]

A further experiment deals with C. tropicalis. The class given is cell-based. Particulars: interval [a]-[b], tested spheniscin-2 0.2-100 μM, MSI-94 0.2-10 μM. As for the experimental part: as §7, §2, §6, §8, §9
Experiment [2] relates to Aspergillus fumigatus. Description: Effect on growth of Aspergillus fumigatus, observation with electronic microscope. The class given is cell-based. The settings on record: incubation with 6 μM of spheniscin-2. An excerpt:
(FIG. 9A) Control growth: the aspergillar heads terminated by the spores are clearly visible (X 400). […] The effect of spheniscin-2 on A. fumigatus is consequently not of the direct fungicidal type on the spores but is manifested by a halt of growth by inhibition of the reproduction of the fungus because there is no longer formation of aspergillar heads, structures implicated in the reproduction/proliferation process of this fungus.

Experiment [3] relates to Vibrio metshnikovii NCTC 8483. Description: MIC, growth inhibition test in liquid medium in microtitration plates. The class given is cell-based. The settings on record: interval [a]-[b], tested spheniscin-2 0.2-100 μM. On the procedure: as §5, §2, §6, §4
Experiment [4] relates to V. anguillarum ATCC 19264. Described as above. The class given is cell-based. Particulars: interval [a]-[b], tested spheniscin-2 0.2-100 μM. On the procedure:
as §5, §2, §6, §4

For the next experiment, the system named is C. albicans IHEM 8060. The class given is cell-based, Candida albicans. The settings on record: interval [a]-[b], tested spheniscin-2 0.2-100 μM, MSI-94 0.2-10 μM. On the procedure:
as §7, §2, §6, §8, §9

For another experiment, the system named is Staphylococcus aureus. The class given is cell-based. Particulars: interval [a]-[b], tested spheniscin-2 0.2-100 μM, MSI-94 0.2-10 μM. On the procedure: as §5, §2, §6, §8
(§10) The minimal growth inhibitory concentration (MIC) corresponds to the interval [a]-[b] in which [a] is the strongest concentration tested for which the microorganism grows and [b] is the weakest concentration tested starting at which there is 100% inhibition of growth of the microorganism (Casteels and Tempst, 1994). The control peptides were MSI-94 (a peptide of the mangainin family stemming from the skin of the batrachian Xenopus laevis and presenting a broad spectrum of antimicrobial activity; Maloy and Kari, 1995) for testing against the bacteria and yeasts; and thanatin (an antifungal peptide stemming from the insect Podisus maculiventris; Fehlbaum et al., 1996) for testing against the filamentous fungi.

The subject of another experiment is Salmonella typhimurium. The class given is cell-based. Particulars: interval [a]-[b], tested spheniscin-2 0.2-100 μM, MSI-94 0.2-10 μM. On the procedure:
as §5, §2, §6, §8, §10

In experiment [5] the test system is Pseudomonas aeruginosa ATCC 82118. The class given is cell-based. Particulars: interval [a]-[b], tested spheniscin-2 0.2-100 μM, MSI-94 0.2-10 μM. On the procedure: as §5, §2, §6, §8, §10
The next experiment deals with Micrococcus luteus. The class given is cell-based. The settings on record: interval [a]-[b], tested spheniscin-2 0.2-100 μM, MSI-94 0.2-10 μM. As for the experimental part:
as §5, §2, §6, §8, §10

For a further experiment, the system named is Bacillus subtilis. The class given is cell-based. Particulars: interval [a]-[b], tested spheniscin-2 0.2-100 μM, MSI-94 0.2-10 μM. As for the experimental part:
as §5, §2, §6, §8, §10

A further experiment relates to Listeria monocytogenes. The class given is cell-based. The settings on record: interval [a]-[b], tested spheniscin-2 0.2-100 μM, MSI-94 0.2-10 μM. On the procedure: as §5, §2, §6, §8, §10
For the next experiment, the system named is B. megaterium. The class given is cell-based. Particulars: interval [a]-[b], tested spheniscin-2 0.2-100 μM, MSI-94 0.2-10 μM. On the procedure: as §5, §2, §6, §8, §10
The next experiment concerns Aerococcus viridans. The class given is cell-based. The settings on record: interval [a]-[b], tested spheniscin-2 0.2-100 μM, MSI-94 0.2-10 μM. On the procedure:
as §5, §2, §6, §8, §10

In another experiment the test system is S. haemolyticus. The class given is cell-based. The settings on record: interval [a]-[b], tested spheniscin-2 0.2-100 μM, MSI-94 0.2-10 μM. As for the experimental part: as §5, §2, §6, §8, §10
Another experiment concerns Nocardia asteroides. The class given is cell-based. The settings on record: interval [a]-[b], tested spheniscin-2 0.2-100 μM, MSI-94 0.2-10 μM. As for the experimental part:
as §5, §2, §6, §8, §10

The test system of another experiment is Escherichia coli SBS 363. The class given is cell-based. Particulars: interval [a]-[b], tested spheniscin-2 0.2-100 μM, MSI-94 0.2-10 μM. As for the experimental part:
as §5, §2, §6, §8, §10

For another experiment, the system named is Klebsiella pneumoniae. The class given is cell-based. Particulars: interval [a]-[b], tested spheniscin-2 0.2-100 μM, MSI-94 0.2-10 μM. On the procedure:
as §5, §2, §6, §8, §10

Residues, ends and D or L forms follow the SMILES beside them.

Broadly, the MIC is the lowest concentration found to suppress growth. The low end stands for a more susceptible organism, the high end for a less susceptible organism.

As for `CC[C@H](C)[C@@H]1NC(=O)[C@@H]2CCCN2C(=O)[C@H]([C@@H](C)CC)NC(=O)[C@H](CO)NC(=O)[C@@H]2CCCN2C(=O)[C@H](Cc2ccccc2)NC(=O)[C@H](CCCNC(=N)N)NC(=O)[C@@H]2CSSC[C@@H](C(=O)N[C@@H](CCCNC(=N)N)C(=O)N[C@@H](CCCNC(=N)N)C(=O)N[C@H](C(=O)N[C@@H](Cc3c[nH]c4ccccc34)C(=O)O)C(C)C)NC(=O)[C@@H]3CSSC[C@H](NC(=O)[C@H](CC(C)C)NC(=O)CNC(=O)[C@H](Cc4ccccc4)NC(=O)[C@@H](N)CO)C(=O)N[C@@H](CCCNC(=N)N)C(=O)N[C@@H](CC(C)C)C(=O)N[C@@H](CCCNC(=N)N)C(=O)N[C@@H](CCCNC(=N)N)C(=O)NCC(=O)N[C@@H](Cc4ccccc4)C(=O)N[C@@H](CSSC[C@H](NC(=O)[C@H](CCCNC(=N)N)NC(=O)CNC1=O)C(=O)N[C@@H](CO)C(=O)N[C@@H](CCCNC(=N)N)C(=O)N[C@@H](Cc1ccccc1)C(=O)N[C@@H](C(C)C)C(=O)N[C@@H](CCC(N)=O)C(=O)N3)C(=O)N[C@@H](C)C(=O)N[C@@H](CCCNC(=N)N)C(=O)NCC(=O)N[C@@H](CCCNC(=N)N)C(=O)N2` [spheniscin-2] (HELM PEPTIDE1{S.F.G.L.C.R.L.R.R.G.F.C.A.R.G.R.C.R.F.P.S.I.P.I.G.R.C.S.R.F.V.Q.C.C.R.R.V.W}$PEPTIDE1,PEPTIDE1,5:R3-33:R3|PEPTIDE1,PEPTIDE1,12:R3-27:R3|PEPTIDE1,PEPTIDE1,17:R3-34:R3$$$V2.0; N-terminus and C-terminus assumed), the MIC with Neurospora crassa is 3 to 6 µM; in the experiment on Aspergillus fumigatus [1], 3 to 6 µM; against B. cereus ATCC 11778 it was 3 to 6 µM; in the experiment on S. saprophyticus it was 1.5 to 3 µM; in the experiment with Candida glabrata, over 100 µM; against C. tropicalis, 1.5 to 3 µM. Moreover, the MIC in [3] is 25 to 50 µM; in experiment [4] it was 25 to 50 µM; against C. albicans IHEM 8060, 50 to 100 µM; in the experiment with Staphylococcus aureus, 1.5 to 3 µM; in the experiment with Salmonella typhimurium it was 6 to 12 µM; in experiment [5], 6 to 12 µM. Further, the MIC in the experiment with Micrococcus luteus lay within 1.5 to 3 µM; in the experiment with Bacillus subtilis it was 0.8 to 1.5 µM; in the experiment on Listeria monocytogenes it was 6 to 12 µM; against B. megaterium, 0.4 to 0.8 µM; against Aerococcus viridans, 0.4 to 0.8 µM; against S. haemolyticus it was 1.5 to 3 µM. The results for the MIC in the experiment on Nocardia asteroides, against Escherichia coli SBS 363 and in the experiment with Klebsiella pneumoniae were 0.8 to 1.5 µM, 0.8 to 1.5 µM and 50 to 100 µM, respectively. Besides, the “Effect on the growth of Aspergillus fumigatus (FIG. 9B)” value with Aspergillus fumigatus [2] is on record as “disappearance of the aspergillar heads”.
